In patent US11001557B2 (priority 2017, dated 2021):
Like-named read-outs stand apart in the source and are kept apart here.

Experiments:
SFTSV [1] = assay: microbe, parasite or virus in culture; assay type: cell-based, severe fever with thrombocytopenia syndrome virus (SFTSV); details: for EC50: Severe fever with thrombocytopenia syndrome virus, Vero, 72 h
Vero cells = details: African green monkey
in vitro = details: African green monkey
SFTSV [2] = details: cited from earlier work
[3] = read-out: EC50: 50% effective concentration (concentration of a drug suppressing SFTSV proliferation by 50%)

Row | Compound | EC50 (SFTSV [1]; [3]) [µM] | CC50 (Vero cells) [µM] | CC50 (in vitro) [µM] | also measured
1 | CCN(CC)Cc1cc(Nc2ccnc3cc(Cl)ccc23)ccc1O [Compound 1, Amodiaquine, reference compound] | 19.1 ± 5.1 | > 100 |  | anti-SFTSV effect (in words) (SFTSV [1]): have an anti-SFTSV effect
2 | CCN(CC)Cc1cc(Nc2ccnc3cc(F)ccc23)ccc1O [Compound 2, 4-(7-fluoroquinolin-4-ylamino)-2-diethylaminomethylphenol] | 36.6 ± 9.3 | > 100 |  | 
3 | CCN(CC)Cc1cc(Nc2ccnc3cc(Br)ccc23)ccc1O [Compound 3, 4-(7-bromoquinolin-4-ylamino)-2-diethylaminomethylphenol] | 31.1 ± 16.8 | > 100 |  | melting point: 194.3 to 195.8 °C
4 | CCN(CC)Cc1cc(Nc2ccnc3cc(I)ccc23)ccc1O [Compound 4, 4-(7-iodoquinolin-4-ylamino)-2-diethylaminomethylphenol] | 15.6 ± 4.9 | > 100 |  | melting point: 189.7 to 190.4 °C
5 | Oc1ccc(Nc2ccnc3cc(Cl)ccc23)cc1CN1CCCC1 [Compound 5, 4-(7-chloroquinolin-4-ylamino)-2-(1-pyrrolidinylmethyl)phenol] | 14.6 |  | 41.1 | 
6 | CCCN(CCC)Cc1cc(Nc2ccnc3cc(Cl)ccc23)ccc1O [Compound 6, 4-(7-chloroquinolin-4-ylamino)-2-dipropylaminomethylphenol] | 58.7 |  | > 100 | melting point: 163.2 to 164.3 °C
7 | CCCCN(C)Cc1cc(Nc2ccnc3cc(I)ccc23)ccc1O [Compound 12, 4-(7-iodoquinolin-4-ylamino)-2-butylmethylaminomethylphenol] |  |  | > 50 | EC50 (SFTSV [1]): 6.2 µM
8 | CCCCCN(C)Cc1cc(Nc2ccnc3cc(I)ccc23)ccc1O [Compound 13, 4-(7-iodoquinolin-4-ylamino)-2-methylpentylaminomethylphenol] |  |  | > 50 | EC50 (SFTSV [1]): 3.4 µM
9 | CCCCCCN(C)Cc1cc(Nc2ccnc3cc(I)ccc23)ccc1O [Compound 14, 4-(7-iodoquinolin-4-ylamino)-2-hexylmethylaminomethylphenol] |  |  | > 50 | EC50 (SFTSV [1]): 8.7 µM
10 | NC(=O)c1nc(F)c[nH]c1=O [favipiravir, reference compound] |  |  |  | anti-SFTSV effect already reported (SFTSV [2]): already reported to have an anti-SFTSV effect; anti-SFTSV effect (in words) (SFTSV [1]): have an anti-SFTSV effect
11 | NC(=O)c1ncn([C@@H]2O[C@H](CO)[C@@H](O)[C@H]2O)n1 [ribavirin, reference compound] |  |  |  | anti-SFTSV effect already reported (SFTSV [2]): already reported to have an anti-SFTSV effect; anti-SFTSV effect (in words) (SFTSV [1]): have an anti-SFTSV effect
